Each structure is given as a SMILES string.

Usually remaining activity stands for the signal under treatment as a percentage of the control signal. The DC50 is the concentration giving 50% degradation.

This assay concerns the target T1, SGK3 (Homo sapiens, UniProt Q96BR1).
T1 sequence (Q96BR1 1-496): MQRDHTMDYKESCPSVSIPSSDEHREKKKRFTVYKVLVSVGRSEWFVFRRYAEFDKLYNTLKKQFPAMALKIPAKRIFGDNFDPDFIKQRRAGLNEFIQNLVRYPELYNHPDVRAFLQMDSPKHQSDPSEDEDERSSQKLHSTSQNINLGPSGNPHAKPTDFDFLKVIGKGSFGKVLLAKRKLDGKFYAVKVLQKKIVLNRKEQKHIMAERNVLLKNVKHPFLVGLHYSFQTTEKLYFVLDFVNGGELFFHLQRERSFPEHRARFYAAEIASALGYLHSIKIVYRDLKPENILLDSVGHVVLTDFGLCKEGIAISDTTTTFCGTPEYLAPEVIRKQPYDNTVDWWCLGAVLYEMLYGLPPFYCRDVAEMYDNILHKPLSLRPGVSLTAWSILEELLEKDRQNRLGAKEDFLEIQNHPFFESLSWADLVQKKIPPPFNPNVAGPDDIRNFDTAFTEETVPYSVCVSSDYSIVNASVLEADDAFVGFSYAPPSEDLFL
Description: SGK3 degradation in HEK293 cells, immunoblot. Format: cell-based. Further details: reduced endogenous SGK isoform or S6K1 expression when administered to HEK293 cells for 48 h; endogenous in cells; host or cells: HEK293; Dmax: dose or concentration left out as unconfirmed. As to conditions: for remaining activity at 0.001 µM / remaining activity at 0.01 µM / remaining activity at 0.1 µM / remaining activity at 1 µM / remaining activity at 10 µM: Figure 2. The protocol:
Figure 1 Design and cellular activity of first generation SGK3 PROTACs. (A) Structure of compound 14H, previously published by Sanofi as an inhibitor of SGK3. (B) Starting material for SGK PROTACs. […] (C) Structures of first generation SGK PROTACs. SGK and E3 ligase targeting motifs were joined by a 3xPEG linker to produce the PROTACs. (D) HEK293 cells were treated for 48 h with increasing concentrations of each PROTAC compound from 0.1 nM to 10 μM. Cell lysates were subjected to immunoblot analysis with the indicated antibodies, and SGK3 protein levels were quantified in Image Studio Lite software (Licor).
Figure 2 Design and cellular evaluation of second and third generation SGK PROTACs. (A) Chemical structure of compounds DAT5–12, expanding upon DAT1. (B) Chemical structure of cisSGK3-PROTAC1. (C) HEK293 cells were treated for 48 h with increasing concentrations of each PROTAC compound from 1 nM to 10 μM. Cell lysates were subjected to immunoblot analysis with the indicated antibodies, and SGK3 protein levels quantified in Image Studio Lite software. (D) HEK293 cells were treated for 48 h with increasing concentrations of each PROTAC compound from 1 nM to 10 μM. Cell lysates were subjected to immunoblot analysis with the indicated antibodies, and SGK3 and S6K1 protein levels were quantified in Image Studio Lite software. TEXT PRINTED IN THE PICTURE: (C) DAT1: % SGK3: 100 (48h Treatment (μM): 0); % SGK3: 94 (48h Treatment (μM): 0.001); % SGK3: 82 (48h Treatment (μM): 0.01); % SGK3: 70 (48h Treatment (μM): 0.1); % SGK3: 52 (48h Treatment (μM): 1); % SGK3: 31 (48h Treatment (μM): 10) | (C) DAT5: % SGK3: 100 (48h Treatment (μM): 0); % SGK3: 104 (48h Treatment (μM): 0.001); % SGK3: 82 (48h Treatment (μM): 0.01); % SGK3: 92 (48h Treatment (μM): 0.1); % SGK3: 73 (48h Treatment (μM): 1); % SGK3: 36 (48h Treatment (μM): 10) | (C) DAT6: % SGK3: 100 (48h Treatment (μM): 0); % SGK3: 105 (48h Treatment (μM): 0.001); % SGK3: 90 (48h Treatment (μM): 0.01); % SGK3: 71 (48h Treatment (μM): 0.1); % SGK3: 44 (48h Treatment (μM): 1); % SGK3: 20 (48h Treatment (μM): 10) | (C) DAT7: % SGK3: 100 (48h Treatment (μM): 0); % SGK3: 77 (48h Treatment (μM): 0.001); % SGK3: 80 (48h Treatment (μM): 0.01); % SGK3: 95 (48h Treatment (μM): 0.1); % SGK3: 37 (48h Treatment (μM): 1); % SGK3: 29 (48h Treatment (μM): 10) | (D) DAT8: % SGK3: 100 (48h Treatment (μM): 0); % SGK3: 97 (48h Treatment (μM): 0.001); % SGK3: 107 (48h Treatment (μM): 0.01); % SGK3: 34 (48h Treatment (μM): 0.1); % SGK3: 24 (48h Treatment (μM): 1); % SGK3: 19 (48h Treatment (μM): 10) | (D) DAT9: % SGK3: 100 (48h Treatment (μM): 0); % SGK3: 105 (48h Treatment (μM): 0.001); % SGK3: 71 (48h Treatment (μM): 0.01); % SGK3: 40 (48h Treatment (μM): 0.1); % SGK3: 11 (48h Treatment (μM): 1); % SGK3: 12 (48h Treatment (μM): 10) | (D) DAT10: % SGK3: 100 (48h Treatment (μM): 0); % SGK3: 100 (48h Treatment (μM): 0.001); % SGK3: 76 (48h Treatment (μM): 0.01); % SGK3: 54 (48h Treatment (μM): 0.1); % SGK3: 11 (48h Treatment (μM): 1); % SGK3: 9 (48h Treatment (μM): 10) | (D) DAT11: % SGK3: 100 (48h Treatment (μM): 0); % SGK3: 96 (48h Treatment (μM): 0.001); % SGK3: 97 (48h Treatment (μM): 0.01); % SGK3: 41 (48h Treatment (μM): 0.1); % SGK3: 32 (48h Treatment (μM): 1); % SGK3: 29 (48h Treatment (μM): 10) | (D) DAT12: % SGK3: 100 (48h Treatment (μM): 0); % SGK3: 106 (48h Treatment (μM): 0.001); % SGK3: 84 (48h Treatment (μM): 0.01); % SGK3: 79 (48h Treatment (μM): 0.1); % SGK3: 32 (48h Treatment (μM): 1); % SGK3: 29 (48h Treatment (μM): 10) DOUBTS OF THE COPYIST ABOUT THIS PICTURE: All % SGK3 values are quantification numbers printed under immunoblot lanes; each was assigned to a concentration by lane position / DAT9 and DAT10, % SGK3: the first numbers are printed run together ('100105', '100100') and were split as 100 | 105 and 100 | 100
Figure 3 Characterization of cellular activities of SGK3-PROTAC1 and cisSGK3-PROTAC1. […]
In general terms: Immunoblotting shows a protein as a band on a membrane.

The mark [1] stands for this setting: HEK293, washout after 24 h of treatment.

On to `Cc1ccc(F)c(S(=O)(=O)Nc2ccc(-c3nc(OC[C@H]4CN(CCOCCOCCOCC(=O)N[C@H](C(=O)N5C[C@H](O)C[C@H]5C(=O)NCc5ccc(-c6scnc6C)cc5)C(C)(C)C)CCO4)c4cn[nH]c4n3)cc2)c1` [DAT1], for which the “time of maximal reduction of SGK3 expression” value (HEK293, 1 μM) was ≤ 16 h. For the same molecule, where the note is “HEK293, 8 h time point, dose response”, the “concentration that maximally reduced SGK3 expression” value was found to be 2 µM. Where the note is “HEK293, 48 h”, the SGK3 degradation efficiency result is recorded as “+ (“+” = >50% degradation at 10 μM)”, the remaining activity at 0.001 µM was 94% and the remaining activity at 0.01 µM turned out to be 82%. Besides, the remaining activity at 0.1 µM (HEK293, 48 h, 0.1 μM) is 70%. For the same molecule, for the setting “HEK293, 48 h, 1 μM”, the “reduction of SGK3 expression” value stood at 60% and the remaining activity at 1 µM is 52%. Besides, where the note is “HEK293, 48 h, 10 μM”, the “reduction of SGK3 expression” value is given as 75% and the remaining activity at 10 µM came out at 31%.
As to `Cc1ccc(F)c(S(=O)(=O)Nc2ccc(-c3nc(OC[C@H]4CN(CCOCCOCC(=O)N[C@H](C(=O)N5C[C@H](O)C[C@H]5C(=O)NCc5ccc(-c6scnc6C)cc5)C(C)(C)C)CCO4)c4cn[nH]c4n3)cc2)c1` [DAT5], under “HEK293, 48 h”, the SGK3 degradation efficiency entry is recorded as “+ (“+” = >50% degradation at 10 μM)”, the remaining activity at 0.001 µM came out at 104% and the remaining activity at 0.01 µM was determined as 82%. Moreover, the remaining activity at 0.1 µM (HEK293, 48 h, 0.1 μM) was determined as 92%. Besides, the remaining activity at 1 µM (HEK293, 48 h, 1 μM) turned out to be 73%. Besides, the remaining activity at 10 µM (HEK293, 48 h, 10 μM) was determined as 36%.
For `Cc1ccc(F)c(S(=O)(=O)Nc2ccc(-c3nc(OC[C@H]4CN(CCOCCOCCOCCOCC(=O)N[C@H](C(=O)N5C[C@H](O)C[C@H]5C(=O)NCc5ccc(-c6scnc6C)cc5)C(C)(C)C)CCO4)c4cn[nH]c4n3)cc2)c1` [DAT6], for the setting “HEK293, 48 h”, the SGK3 degradation efficiency entry is listed as “++ (“++” = >50% degradation at 1 μM)”, the remaining activity at 0.001 µM amounted to 105% and the remaining activity at 0.01 µM worked out at 90%. Further, the remaining activity at 0.1 µM (HEK293, 48 h, 0.1 μM) came out at 71%. The remaining activity at 1 µM (HEK293, 48 h, 1 μM) came to 44%. Further, the remaining activity at 10 µM (HEK293, 48 h, 10 μM) is 20%.
As to `Cc1ccc(F)c(S(=O)(=O)Nc2ccc(-c3nc(OC[C@H]4CN(CCOCCOCCOCCOCCOCC(=O)N[C@H](C(=O)N5C[C@H](O)C[C@H]5C(=O)NCc5ccc(-c6scnc6C)cc5)C(C)(C)C)CCO4)c4cn[nH]c4n3)cc2)c1` [DAT7], for the setting “HEK293, 48 h”, the SGK3 degradation efficiency result is “++ (“++” = >50% degradation at 1 μM)”, the remaining activity at 0.001 µM is 77% and the remaining activity at 0.01 µM worked out at 80%. The remaining activity at 0.1 µM (HEK293, 48 h, 0.1 μM) amounted to 95%. In addition, the remaining activity at 1 µM (HEK293, 48 h, 1 μM) was 37%. Also, the remaining activity at 10 µM (HEK293, 48 h, 10 μM) is 29%.
Take `Cc1ccc(F)c(S(=O)(=O)Nc2ccc(-c3nc(OC[C@H]4CN(CCCCCCOCCCCCCOCC(=O)N[C@H](C(=O)N5C[C@H](O)C[C@H]5C(=O)NCc5ccc(-c6scnc6C)cc5)C(C)(C)C)CCO4)c4cn[nH]c4n3)cc2)c1` [DAT10]: where the note is “HEK293, 48 h”, the SGK3 degradation efficiency result is given as “++ (“++” = >50% degradation at 1 μM)”, the remaining activity at 0.001 µM worked out at 100% and the remaining activity at 0.01 µM came out at 76%. Also, where the note is “HEK293, 48 h, 0.1 μM”, the remaining activity at 0.1 µM is 54%. For the same molecule, the remaining activity at 1 µM (HEK293, 48 h, 1 μM) was 11%. The remaining activity at 10 µM (HEK293, 48 h, 10 μM) was determined as 9%.
Take `COc1ccc(Cl)c(S(=O)(=O)Nc2ccc(-c3nc(OC[C@H]4CN(CCCCCCOCCOCCOCCOCC(=O)N[C@H](C(=O)N5C[C@H](O)C[C@H]5C(=O)NCc5ccc(-c6scnc6C)cc5)C(C)(C)C)CCO4)c4c(C)n[nH]c4n3)cc2)c1` [DAT11]: under “HEK293, 48 h”, the SGK3 degradation efficiency entry is listed as “+++ (“+++” = >50% degradation at 0.1 μM)”, the remaining activity at 0.001 µM amounted to 96% and the remaining activity at 0.01 µM stood at 97%. Besides, under “HEK293, 48 h, 0.1 μM”, the remaining activity at 0.1 µM is 41%. In addition, where the note is “HEK293, 48 h, 1 μM”, the remaining activity at 1 µM is 32%. In addition, the remaining activity at 10 µM (HEK293, 48 h, 10 μM) worked out at 29%.
As for `Cc1ccc(F)c(S(=O)(=O)Nc2ccc(-c3nc(OC[C@H]4CN(CCCCCCOCCOCCOCC(=O)N[C@H](C(=O)N5C[C@H](O)C[C@H]5C(=O)NCc5ccc(-c6scnc6C)cc5)C(C)(C)C)CCO4)c4cn[nH]c4n3)cc2)c1` [SGK3-PROTAC1], the “degradation of endogenous SGK3” value (HEK293, 0.3 μM, within 2 h) is 50%. In addition, under “HEK293, 8 h, cisSGK3-PROTAC1 up to 3 μM, SGK3-PROTAC1 0.1 μM”, the “degradation of SGK3” value is “markedly reduced SGK3 expression”. Where the note is “HEK293, 48 h”, the SGK3 degradation efficiency result is on record as “++++ (“++++” = >60% degradation at 0.1 μM)”, the remaining activity at 0.001 µM came out at 97% and the remaining activity at 0.01 µM worked out at 107%. Where the note is “HEK293, 48 h, 0.1 μM”, the “reduction of SGK3 levels” value turned out to be 65% and the remaining activity at 0.1 µM is 34%. For the same molecule, the remaining activity at 1 µM (HEK293, 48 h, 1 μM) came out at 24%. In addition, the remaining activity at 10 µM (HEK293, 48 h, 10 μM) was 19%. Besides, under setting [1], the “time to increased SGK3 expression after washout” value came to 1 h and the “time to return of SGK3 protein to normal levels after washout” value worked out at 10 h. Also, under “HEK293, within 8 h, read-out: maximal degradation of SGK3”, the Dmax was 80%. In addition, under “SGK3 degradation”, the DC50 is < 100 nM.

Values taken from PMC6757289, “Design and Characterization of SGK3-PROTAC1, an Isoform Specific SGK3 Kinase PROTAC Degrader” (ACS Chemical Biology, 2019).
